Tests used:
[1] = target: T1, Oxysterols receptor LXR-alpha (Homo sapiens, UniProt Q13133); assay: Agonist activity at Gal4-tagged LXRalpha (unknown origin) expressed in CHOK1 cells after 24 hrs by luciferase reporter gene assay; type: cell-based, CHO-K1
T1 sequence (Q13133 whole entry): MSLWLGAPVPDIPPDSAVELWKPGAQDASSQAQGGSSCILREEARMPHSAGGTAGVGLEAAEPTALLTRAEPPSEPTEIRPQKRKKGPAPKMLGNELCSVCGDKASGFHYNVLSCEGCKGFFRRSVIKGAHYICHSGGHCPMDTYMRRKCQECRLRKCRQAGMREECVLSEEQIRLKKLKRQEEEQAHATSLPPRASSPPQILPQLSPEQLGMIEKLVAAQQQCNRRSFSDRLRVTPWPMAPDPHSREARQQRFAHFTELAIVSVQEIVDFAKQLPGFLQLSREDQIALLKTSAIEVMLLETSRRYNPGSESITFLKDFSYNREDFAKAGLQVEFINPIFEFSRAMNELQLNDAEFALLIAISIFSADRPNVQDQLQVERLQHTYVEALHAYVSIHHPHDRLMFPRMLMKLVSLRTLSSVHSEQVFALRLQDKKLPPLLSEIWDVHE

[2] = target: T2, Oxysterols receptor LXR-beta (Homo sapiens, UniProt P55055); assay: Agonist activity at Gal4-tagged LXRbeta (unknown origin) expressed in CHOK1 cells after 24 hrs by luciferase reporter gene assay; type: cell-based, CHO-K1
T2 sequence (P55055 whole entry): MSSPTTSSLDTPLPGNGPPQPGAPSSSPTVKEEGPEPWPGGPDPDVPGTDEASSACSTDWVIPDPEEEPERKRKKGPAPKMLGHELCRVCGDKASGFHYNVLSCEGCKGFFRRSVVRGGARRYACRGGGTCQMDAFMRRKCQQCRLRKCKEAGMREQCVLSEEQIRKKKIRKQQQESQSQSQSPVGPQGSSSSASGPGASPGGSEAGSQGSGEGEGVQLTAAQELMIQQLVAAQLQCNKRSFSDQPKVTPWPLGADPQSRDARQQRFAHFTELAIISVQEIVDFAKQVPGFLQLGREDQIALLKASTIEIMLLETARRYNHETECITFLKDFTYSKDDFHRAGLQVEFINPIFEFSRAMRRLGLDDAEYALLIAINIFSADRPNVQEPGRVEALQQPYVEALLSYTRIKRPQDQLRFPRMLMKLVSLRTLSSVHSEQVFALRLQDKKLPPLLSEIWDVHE

[3] = test system: Hamster; assay: Effect on total cholesterol level in high-fat-and-cholesterol diet fed Male Bio F1B hamster plasma at 100 mg/kg, po relative to control; type: functional, Cricetinae
[4] = test system: Hamster; assay: Effect on Plasma triglyceride level in high-fat-and-cholesterol diet fed Male Bio F1B hamster at 30 mg/kg, po relative to control; type: organism-based; set-up: dose 30 mg/kg, route oral; details: cricetinae, in vivo
[5] = test system: Hamster; assay: Effect on HDL-C level in high-fat-and-cholesterol diet fed Male Bio F1B hamster plasma at 100 mg/kg, po relative to control; type: functional, Cricetinae
[6] = test system: Hamster; assay: Effect on area of lipid accumulation in high-fat-and-cholesterol diet fed Male Bio F1B hamster aortic arch at 100 mg/kg, po relative to control; type: functional, Cricetinae, Pharyngeal arch artery
[7] = test system: Hamster; assay: Effect on total cholesterol level in high-fat-and-cholesterol diet fed Male Bio F1B hamster plasma at 300 mg/kg, po relative to control; type: functional, Cricetinae
[8] = test system: Hamster; assay: Effect on total cholesterol level in high-fat-and-cholesterol diet fed Male Bio F1B hamster plasma at 30 mg/kg, po relative to control; type: functional, Cricetinae
[9] = test system: Hamster; assay: Effect on area of lipid accumulation in high-fat-and-cholesterol diet fed Male Bio F1B hamster aortic arch at 30 mg/kg, po relative to control; type: functional, Cricetinae
[10] = Plasma concentration in Golden Syrian hamster at 300 mg/kg, po after 2 hrs; type: ADME, organism-based, Mesocricetus auratus; set-up: dose 300 mg/kg, route oral
[11] = Plasma concentration in Golden Syrian hamster at 300 mg/kg, po after 0.5 hrs; type: ADME, organism-based, Mesocricetus auratus; set-up: dose 300 mg/kg, route oral
[12] = Plasma concentration in Golden Syrian hamster at 300 mg/kg, po after 1 hr; type: ADME, organism-based, Mesocricetus auratus; set-up: dose 300 mg/kg, route oral
[13] = test system: Hamster; assay: Effect on HDL-C level in high-fat-and-cholesterol diet fed Male Bio F1B hamster plasma at 300 mg/kg, po relative to control; type: functional, Cricetinae
[14] = test system: Hamster; assay: Effect on Plasma triglyceride level in high-fat-and-cholesterol diet fed Male Bio F1B hamster at 100 mg/kg, po relative to control; type: organism-based; set-up: dose 100 mg/kg, route oral; details: cricetinae, in vivo
[15] = test system: Syrian golden hamster; assay: Plasma concentration in Golden Syrian hamster at 100 mg/kg, po; type: ADME, organism-based, Mesocricetus auratus; set-up: dose 100 mg/kg, route oral; details: in vivo
[16] = test system: Hamster; assay: Effect on Plasma triglyceride level in high-fat-and-cholesterol diet fed Male Bio F1B hamster at 300 mg/kg, po relative to control; type: organism-based; set-up: dose 300 mg/kg, route oral; details: cricetinae, in vivo
[17] = test system: Hamster; assay: Effect on area of lipid accumulation in high-fat-and-cholesterol diet fed Male Bio F1B hamster aortic arch at 300 mg/kg, po relative to control; type: functional, Cricetinae, Pharyngeal arch artery
[18] = test system: Hamster; assay: Effect on HDL-C level in high-fat-and-cholesterol diet fed Male Bio F1B hamster plasma at 30 mg/kg, po relative to control; type: functional, Cricetinae
[19] = test system: HepG2; assay: Induction of ABCA1 mRNA expression in human HepG2 cells at 5 uM relative to control; type: functional
[20] = test system: HepG2; assay: Induction of SREBP-1c mRNA expression in human HepG2 cells at 5 uM relative to control; type: functional
[21] = test system: HepG2; assay: Ratio of induction of ABCA1 mRNA expression to SREBP-1c mRNA expression in human HepG2 cells at 5 uM; type: functional
[22] = test system: Hamster; assay: Effect on HDL-C level in high-fat-and-cholesterol diet fed Male Bio F1B hamster plasma at 10 mg/kg, po relative to control; type: functional, Cricetinae
[23] = test system: Hamster; assay: Effect on HDL-C level in high-fat-and-cholesterol diet fed Male Bio F1B hamster plasma at 3 to 10 mg/kg, po relative to control; type: functional, Cricetinae; details: dose mg/kg 3-10
[24] = test system: Hamster; assay: Effect on area of lipid accumulation in high-fat-and-cholesterol diet fed Male Bio F1B hamster aortic arch at 10 mg/kg, po relative to control; type: functional, Cricetinae
[25] = test system: Hamster; assay: Effect on total cholesterol level in high-fat-and-cholesterol diet fed Male Bio F1B hamster plasma at 10 mg/kg, po relative to control; type: functional, Cricetinae
[26] = test system: Hamster; assay: Effect on area of lipid accumulation in high-fat-and-cholesterol diet fed Male Bio F1B hamster aortic arch at 3 mg/kg, po relative to control; type: functional, Cricetinae
[27] = test system: Hamster; assay: Effect on Plasma triglyceride level in high-fat-and-cholesterol diet fed Male Bio F1B hamster at 3 mg/kg, po relative to control; type: organism-based; set-up: dose 3 mg/kg, route oral; details: cricetinae, in vivo
[28] = test system: Hamster; assay: Effect on HDL-C level in high-fat-and-cholesterol diet fed Male Bio F1B hamster plasma at 3 mg/kg, po relative to control; type: functional, Cricetinae
[29] = test system: Hamster; assay: Effect on total cholesterol level in high-fat-and-cholesterol diet fed Male Bio F1B hamster plasma at 3 mg/kg, po relative to control; type: functional, Cricetinae
[30] = test system: Hamster; assay: Effect on Plasma triglyceride level in high-fat-and-cholesterol diet fed Male Bio F1B hamster at 10 mg/kg, po relative to control; type: organism-based; set-up: dose 10 mg/kg, route oral; details: cricetinae, in vivo
[31] = test system: Hamster; assay: Effect on Plasma triglyceride level in high-fat-and-cholesterol diet fed Male Bio F1B hamster at 3 to 10 mg/kg, po relative to control; type: organism-based; set-up: dose 3-10 mg/kg, route oral; details: cricetinae, in vivo

Compound: CCCc1cc2c(C(F)(F)F)cc(=O)oc2c(CCC)c1OCCCCN1C(=O)NC(C)(c2ccc(OC)c(OC)c2)C1=O (centres undefined)
- EC50 ([1]; cho-k1): Not Active
- EC50 ([2]; cho-k1): Not Active

Compound: CCCc1cc2c(C(F)(F)F)cc(=O)oc2c(CCC)c1OCCCCN1C(=O)NC(C)(c2ccc3c(c2)OCO3)C1=O (centres undefined)
- EC50 ([2]; read-out: EC50): 1.2 µM

Compound: CCCc1cc2c(C(F)(F)F)cc(=O)oc2c(CCC)c1OCCCCN1C(=O)NC(C)(c2ccc(N(C)C)cc2)C1=O (centres undefined)
- EC50 ([1]; cho-k1): Not Active
- EC50 ([2]; cho-k1): Not Active

Compound: CCCc1cc2c(C(F)(F)F)cc(=O)oc2c(CCC)c1OCCCCN1C(=O)NC(C)(c2ccc(C(F)(F)F)cc2)C1=O (centres undefined)
- EC50 ([1]; cho-k1): Not Active

Compound: CCCc1cc2c(C(F)(F)F)cc(=O)oc2c(CCC)c1OCCCCN1C(=O)NC(C)(c2ccc([N+](=O)[O-])cc2)C1=O (centres undefined)
- EC50 ([1]; cho-k1): Not Active
- EC50 ([2]; read-out: EC50): 8 µM

Compound: CCCc1cc2c(C(F)(F)F)cc(=O)oc2c(CCC)c1OCCCCN1C(=O)NC(C)(c2ccc(C(=O)O)cc2)C1=O (centres undefined)
- EC50 ([1]; cho-k1): Not Active
- EC50 ([2]; cho-k1): Not Active

Compound: CCCc1cc2c(C(F)(F)F)cc(=O)oc2c(CCC)c1OCCCCN1C(=O)NC(C)(c2ccc(O)cc2)C1=O (centres undefined)
- EC50 ([1]; cho-k1): Not Active
- EC50 ([2]; cho-k1): Not Active

Compound: CCCc1c(OCCCCN2C(=O)CN(C)C2=O)ccc2c(C(F)(F)F)cc(=O)oc12
- EC50 ([2]; read-out: EC50): 1.3 µM

Compound: CCCc1c(OCCCCN2C(=O)NC(C)(c3ccccc3)C2=O)ccc2c(C(F)(F)F)cc(=O)oc12 (centres undefined)
- EC50 ([1]; cho-k1): Not Active
- EC50 ([2]; read-out: EC50): 2 µM

Compound: CCCc1c(OCCCCN2C(=O)NC(C)(c3ccc(OC)cc3)C2=O)ccc2c(C(F)(F)F)cc(=O)oc12 (centres undefined)
- Activity [3]: 101%
- Activity [4]: 136%
- Activity [5]: 96%
- Activity [6]: 102%
- Activity [7]: 98%
- Activity [8]: 115%
- Activity [9]: 119%
- concentration at 2 h [10]: 0.059 µg/mL
- concentration at 0.5 h [11]: 0.05 µg/mL
- concentration at 1 h [12]: 0.053 µg/mL
- Activity [13]: 113%
- Activity [14]: 131%
- Cp [15]: Not Active
- Activity [16]: 96%
- Activity [17]: 56%
- Activity [18]: 96%

Compound: CCCc1c(OCCCCN2C(=O)NC(C)(c3ccc(OC)c(OC)c3)C2=O)ccc2c(C(F)(F)F)cc(=O)oc12 (centres undefined)
- EC50 ([1]; cho-k1): Not Active
- EC50 ([2]; read-out: EC50): 3 µM

Compound: CCCc1c(OCCCCN2C(=O)NC(C)(c3ccc4c(c3)OCO4)C2=O)ccc2c(C(F)(F)F)cc(=O)oc12 (centres undefined)
- EC50 ([2]; read-out: EC50): 1.1 µM

Compound: CCCc1c(OCCCCN2C(=O)NC(C)(c3ccc(C(=O)O)cc3)C2=O)ccc2c(C(F)(F)F)cc(=O)oc12 (centres undefined)
- EC50 ([1]; cho-k1): Not Active
- EC50 ([2]; cho-k1): Not Active

Compound: CCCc1c(OCCCCN2C(=O)NC(C)(c3ccc(O)cc3)C2=O)ccc2c(C(F)(F)F)cc(=O)oc12 (centres undefined)
- EC50 ([1]; cho-k1): Not Active

Compound: CCCc1c(OCCCN2C(=O)CSC2=O)ccc2c(C(F)(F)F)noc12
- EC50 ([1]; read-out: EC50): 1.3 µM
- EC50 ([2]; read-out: EC50): 0.69 µM

Compound: O=C(O)Cc1cccc(OCCCN(Cc2cccc(C(F)(F)F)c2Cl)CC(c2ccccc2)c2ccccc2)c1
- fold change (FC) [19]: 15
- EC50 ([1]; read-out: EC50): 1.3 µM
- fold change (FC) [20]: 4.9
- Ratio [21]: 3.1
- EC50 ([2]; read-out: EC50): 0.42 µM

Compound: O=S(=O)(c1ccccc1)N(CC(F)(F)F)c1ccc(C(O)(C(F)(F)F)C(F)(F)F)cc1 [T091317]
- Activity [22]: 59%
- fold change (FC) [23]: 3
- Activity [24]: 52%
- Activity [25]: 127%
- Activity [26]: 53%
- Activity [27]: 206%
- Activity [28]: 67%
- Activity [29]: 123%
- Activity [30]: 243%
- Activity [31]: 50%
